# Measured values taken from the RepoRT retention time repository (doi:10.1016/j.scitotenv.2015.08.078).
# Test: RP, Waters ACQUITY UPLC BEH C18, 100 × 2.1 mm, 1.7 µm, 0.3 mL/min, estimated dead time 0.73 min; A: water + 0.1% formic acid, pH 3; B: methanol + 0.1% formic acid, pH 3; gradient (min/%B) 0/10 14/90 16/90 18/10
# Settings: stereoisomer not certain
row,Compound,LC retention time
1,CN1COCN(Cc2cnc(Cl)s2)C1=N[N+](=O)[O-] [Thiamethoxam],3.27 min
2,CS(=O)(=O)c1ccc(C(O)C(CO)NC(=O)C(Cl)Cl)cc1 (centres undefined) [Thiamphenicol],3.6 min
3,O=C(Nc1ccccc1)Nc1cnns1 [Thidiazuron],7.36 min
4,COC(=O)c1sccc1S(=O)(=O)NC(=O)Nc1nc(C)nc(OC)n1 [Thifensulfuron methyl],5.04 min
5,CCN(CC)C(=O)SCc1ccc(Cl)cc1 [Thiobencarb],12.9 min
6,COC(=O)NC(=S)Nc1ccccc1NC(=S)NC(=O)OC [Thiophanate-methyl],7.2 min
7,C=CC1(C)CC(OC(=O)CSCCN(CC)CC)C2(C)C(C)CCC3(CCC(=O)C32)C(C)C1O (centres undefined) [Tiamulin],9.22 min
8,Clc1ccccc1CN1CCc2sccc2C1 [Ticlopidine],12.1 min
9,CCC1OC(=O)CC(O)C(C)C(OC2OC(C)C(O)C(N(C)C)C2O)C(CCN2CC(C)CC(C)C2)CC(C)C(=O)C=CC(C)=CC1COC1OC(C)C(O)C(OC)C1OC (centres undefined) [Tilmicosin],8.78 min
10,CCCCNC(=O)NS(=O)(=O)c1ccc(C)cc1 [Tolbutamide],8.33 min
11,COP(=S)(OC)Oc1c(Cl)cc(C)cc1Cl [Tolclofos-methyl],12.1 min
12,Cc1c(Cl)cccc1Nc1ccccc1C(=O)O [Tolfenamic acid],11 min
13,Cc1ccc(N(SC(F)(Cl)Cl)S(=O)(=O)N(C)C)cc1 [Tolyfluanid],12.4 min
14,CC(C)N(C(=O)SCC(Cl)=C(Cl)Cl)C(C)C [Tri-allate],13.3 min
15,CC(C)(C)C(=O)C(Oc1ccc(Cl)cc1)n1cncn1 (centres undefined) [Triadimefon],10.6 min
16,CC(C)(C)C(O)C(Oc1ccc(Cl)cc1)n1cncn1 (centres undefined) [Triadimenol],11.3 min
17,CC1(C)OC2CC3C4CCC5=CC(=O)C=CC5(C)C4(F)C(O)CC3(C)C2(C(=O)CO)O1 (centres undefined) [Triamcinolone acetonide],9.42 min
18,CC12C=CC(=O)C=C1CCC1C3CC(O)C(O)(C(=O)CO)C3(C)CC(O)C12F (centres undefined) [Triamcinolone],6.95 min
19,COc1nc(C)nc(NC(=O)NS(=O)(=O)c2ccccc2OCCCl)n1 [Triasulfuron],6.67 min
20,[O-][n+]1nc(-n2ccnc2)nc2ccc(Cl)cc21 [Triazoxide],8.54 min

row,Compound,LC retention time
1,COC(=O)c1ccccc1S(=O)(=O)NC(=O)N(C)c1nc(C)nc(OC)n1 [Tribenuron methyl],7.52 min
2,COP(=O)(OC)C(O)C(Cl)(Cl)Cl (centres undefined) [Trichlorfon],4.7 min
3,Cc1cccc2sc3nncn3c12 [Tricyclazole],6.05 min
4,CCCOCC(=Nc1ccc(Cl)cc1C(F)(F)F)n1ccnc1 [Triflumizole],12.7 min
5,O=C(NC(=O)c1ccccc1Cl)Nc1ccc(OC(F)(F)F)cc1 [Triflumuron],12 min
6,CN(C)CCCN1c2ccccc2Sc2ccc(C(F)(F)F)cc21 [Triflupromazine],10.6 min
7,COC(=O)c1cccc(C)c1S(=O)(=O)NC(=O)Nc1nc(OCC(F)(F)F)nc(N(C)C)n1 [Triflusulfuron-methyl],9.27 min
8,CCOC(=O)C1CC(=O)C(=C(O)C2CC2)C(=O)C1 (centres undefined) [Trinexapac-ethyl],7.6 min
9,Cc1ccc(C(=CCN2CCCC2)c2ccccn2)cc1 [Triprolidine],7.64 min
10,CC1(C)CCC(=Cc2ccc(Cl)cc2)C1(O)Cn1cncn1 (centres undefined) [Triticonazole],11 min
11,CC(C)(C)NCC(O)c1ccccc1Cl (centres undefined) [Tulobuterol],5.6 min
12,COc1ccc(C(CN(C)C)C2(O)CCCCC2)cc1 (centres undefined) [Venlafaxine],7.23 min
13,CCCSC(=O)N(CCC)CCC [Vernolat],12.2 min
14,COCC1OC(=O)c2coc3c2C1(C)C1=C(C3=O)C2CCC(=O)C2(C)CC1OC(C)=O (centres undefined) [Wortmannin],7.75 min
15,Cc1cccc(C)c1NC1=NCCCS1 [Xylazine],4.92 min
16,CC1CCCC(=O)CCCC=Cc2cc(O)cc(O)c2C(=O)O1 (centres undefined) [Zearalenone],10.5 min
17,CC1CCCC(O)CCCCCc2cc(O)cc(O)c2C(=O)O1 (centres undefined) [Zeranol (Alfa Zearalanol. a-ZAL)],10.7 min
18,CCCCCCCCC=CC1CCC(=O)O1 (centres undefined) [japonilure],9.82 min
19,Clc1cccc(N2CCNCC2)c1 [mCCP],5.23 min
